Measurements from ChEMBL document CHEMBL2406961, “Inhibitors of ATR Kinase for Treatment of Cancer” (ACS Med Chem Lett, 2013).

Biological target: Serine/threonine-protein kinase ATR (Homo sapiens, UniProt Q13535)
Assay: Inhibition of ATR (unknown origin)

Serine/threonine-protein kinase ATR, sequence (Q13535 whole entry): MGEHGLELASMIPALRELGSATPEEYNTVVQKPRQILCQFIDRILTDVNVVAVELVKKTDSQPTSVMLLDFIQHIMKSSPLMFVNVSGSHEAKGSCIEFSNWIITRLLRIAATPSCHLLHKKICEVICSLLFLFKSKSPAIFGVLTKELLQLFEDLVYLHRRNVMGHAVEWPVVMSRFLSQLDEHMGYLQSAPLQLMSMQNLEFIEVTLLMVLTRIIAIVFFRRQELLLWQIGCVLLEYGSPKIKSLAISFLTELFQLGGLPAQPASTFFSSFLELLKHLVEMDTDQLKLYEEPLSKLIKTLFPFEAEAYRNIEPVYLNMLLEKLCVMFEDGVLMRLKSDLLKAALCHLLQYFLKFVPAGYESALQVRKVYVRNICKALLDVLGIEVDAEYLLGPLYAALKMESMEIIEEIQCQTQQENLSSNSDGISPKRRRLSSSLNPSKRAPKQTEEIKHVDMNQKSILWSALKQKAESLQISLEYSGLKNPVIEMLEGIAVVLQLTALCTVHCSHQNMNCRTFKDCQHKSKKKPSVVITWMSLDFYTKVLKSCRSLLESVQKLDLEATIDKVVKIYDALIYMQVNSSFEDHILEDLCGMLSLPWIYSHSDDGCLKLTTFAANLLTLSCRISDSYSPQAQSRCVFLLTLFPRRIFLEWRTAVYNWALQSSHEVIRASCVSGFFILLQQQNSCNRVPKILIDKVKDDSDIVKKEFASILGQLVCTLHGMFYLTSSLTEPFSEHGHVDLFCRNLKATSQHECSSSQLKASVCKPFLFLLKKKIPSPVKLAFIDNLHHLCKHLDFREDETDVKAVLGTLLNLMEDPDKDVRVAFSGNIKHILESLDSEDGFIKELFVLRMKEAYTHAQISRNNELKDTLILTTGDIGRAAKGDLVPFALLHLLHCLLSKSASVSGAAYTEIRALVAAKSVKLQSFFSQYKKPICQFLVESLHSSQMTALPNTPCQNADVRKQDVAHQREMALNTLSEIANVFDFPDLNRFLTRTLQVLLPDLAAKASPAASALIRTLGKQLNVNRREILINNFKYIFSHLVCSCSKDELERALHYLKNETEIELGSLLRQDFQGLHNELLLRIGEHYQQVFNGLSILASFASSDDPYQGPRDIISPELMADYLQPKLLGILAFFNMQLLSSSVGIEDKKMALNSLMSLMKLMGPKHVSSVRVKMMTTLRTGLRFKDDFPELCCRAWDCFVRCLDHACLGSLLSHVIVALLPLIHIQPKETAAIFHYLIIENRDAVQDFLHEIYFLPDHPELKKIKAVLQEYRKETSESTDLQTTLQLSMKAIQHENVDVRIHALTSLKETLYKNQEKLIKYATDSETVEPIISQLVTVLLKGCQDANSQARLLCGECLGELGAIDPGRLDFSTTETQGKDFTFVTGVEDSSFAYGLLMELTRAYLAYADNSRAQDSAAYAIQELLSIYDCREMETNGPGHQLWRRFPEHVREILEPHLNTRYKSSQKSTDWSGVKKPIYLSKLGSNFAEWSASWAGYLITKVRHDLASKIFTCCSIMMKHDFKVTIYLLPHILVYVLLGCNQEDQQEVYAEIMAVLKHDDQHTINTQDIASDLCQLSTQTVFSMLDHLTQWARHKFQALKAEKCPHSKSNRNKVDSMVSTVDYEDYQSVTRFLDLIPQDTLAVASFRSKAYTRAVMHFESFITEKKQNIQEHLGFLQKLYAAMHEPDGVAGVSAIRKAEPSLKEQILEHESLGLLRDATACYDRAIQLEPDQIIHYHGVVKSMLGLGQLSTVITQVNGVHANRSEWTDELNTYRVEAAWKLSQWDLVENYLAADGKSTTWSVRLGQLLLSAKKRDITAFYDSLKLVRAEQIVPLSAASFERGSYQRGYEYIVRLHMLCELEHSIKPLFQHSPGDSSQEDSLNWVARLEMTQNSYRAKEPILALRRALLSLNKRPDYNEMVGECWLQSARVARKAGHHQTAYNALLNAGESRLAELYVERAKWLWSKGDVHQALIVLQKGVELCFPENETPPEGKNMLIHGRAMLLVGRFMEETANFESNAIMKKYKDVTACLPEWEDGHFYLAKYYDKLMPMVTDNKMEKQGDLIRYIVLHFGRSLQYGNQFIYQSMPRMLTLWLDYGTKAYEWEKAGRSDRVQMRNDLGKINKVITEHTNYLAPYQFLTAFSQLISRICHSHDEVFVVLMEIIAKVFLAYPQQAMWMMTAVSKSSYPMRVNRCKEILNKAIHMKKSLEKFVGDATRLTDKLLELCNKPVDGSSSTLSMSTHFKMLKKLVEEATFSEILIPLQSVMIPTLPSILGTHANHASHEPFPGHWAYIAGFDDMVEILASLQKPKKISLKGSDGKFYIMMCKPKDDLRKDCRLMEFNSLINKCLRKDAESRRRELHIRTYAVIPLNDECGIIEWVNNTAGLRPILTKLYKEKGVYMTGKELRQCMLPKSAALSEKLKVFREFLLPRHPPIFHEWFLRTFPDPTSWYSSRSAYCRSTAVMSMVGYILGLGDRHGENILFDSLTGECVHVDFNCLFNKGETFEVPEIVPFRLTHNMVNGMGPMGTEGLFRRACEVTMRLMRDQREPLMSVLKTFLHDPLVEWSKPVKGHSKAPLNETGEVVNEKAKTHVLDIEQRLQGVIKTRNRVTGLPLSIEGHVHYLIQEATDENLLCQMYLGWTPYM

Row | SMILES | Ki [nM]
1 | CNCc1ccc(C2=NOC(c3nc(-c4ccc(S(=O)(=O)C(C)C)cc4)cnc3N)C2)cc1 (configuration not stated) | 16
2 | CC(C)S(=O)(=O)c1ccc(-c2cnc(N)c(C3CC(c4ccccc4)=NO3)n2)cc1 (configuration not stated) | 90
